Entries after “also recorded” stand apart in the source; their conditions may differ. Marks after values point to notes of the source that are not given here. Each block holds one molecule with its values, some of them ahead of it.
Legend:
[1] = test system: laying hens; test: Feeding laying hens: laying performance and egg parameters; format: in vivo; conditions: for Albumen / Average weight of the eggs / Consumption index / Daily food intake / Laying frequency / Weight of eggs / Yolk / Final body weight: 0.13% methionine equivalent in feed, mean; for Final body weight: after 6 weeks
Description: Eighty laying hens aged 45 weeks were housed for 6 weeks and were distributed at random into […] equal groups (20 per group). Each hen was kept in an individual cage at a temperature of (20±2° C.) with controlled lighting conditions. All the hens were offered a similar basic diet, with or without addition of DLM, of HMTBA-Ca or of a 50/50 mixture (HMTBA-Ca: […] All the laying hens had free access to drinking water and were fed throughout the 6-week period of the experiment.

[2] = test system: growing chickens; test: Feeding growing chickens: growth performance; format: in vivo; conditions: 46-day-old chickens, 0.3% in feed (0.24% finishing phase); mean ± standard deviation
Description: (§1) One hundred and forty-seven commercial chickens (1 day old, 48 g) were housed from day 1 to day 46, including the starting phase (days 1-21) and the finishing phase (days 22-46). All the chickens were randomly distributed in seven equal groups (21 per group), and each group was made up of three subgroups of 7 birds each. Each subgroup was kept in an enclosure at a temperature of (28±2° C.), with controlled lighting conditions. All the chickens were offered a similar basic diet, with or without addition of DLM, HMTBA or HMTBA-Ca at levels of 0 (control) or 0.3% in the starting phase and 0 or 0.24% in the finishing phase (Table 4). All the chickens had free access to food and drinking water throughout the test period of 46 days. The weight of the chickens was measured every week and food intake was monitored throughout the experiment.
(§2) At the end of the experiment, the birds were weighed individually and sacrificed. The abdominal fat, the muscles of the thigh and of the breast were taken, lyophilized and weighed.

[3] = test system: growing chickens; test: Feeding growing chickens: composition of the carcass; format: in vivo; conditions: for DB, weight of the muscles of the breast / DL, weight of the muscles of the thigh / PDAT, ratio of the weight of the abdominal fat to that of the eviscerated chicken / PDB, ratio of the weight of the muscles of the breast (without bone or skin) to that of the eviscerated chicken / PDL, ratio of the weight of the muscles of the thigh (without bone or skin) to that of the eviscerated chicken: 46-day chickens, mean ± standard deviation
Description: as §1, §2

[4] = test system: growing chickens; test: Feeding growing chickens: apparent digestibility of nutrients; format: in vivo; conditions: 0.3% in feed; for Apparent digestibility of ash / Apparent digestibility of crude fats / Apparent digestibility of crude proteins / Apparent digestibility of dry matter: 46-day chickens, mean ± standard deviation for 10 chickens
Description: as §1
The excrement of the chickens was collected for the 3 days following the 42nd day of the experiment, were frozen and stored (at −20° C.) for later chemical analyses.

[5] = Crystallinity by DSC in isothermal mode and X-ray diffraction; format: physicochemical; conditions: deduced from DSC (R) or X-ray diffraction (T7)
Description: Samples T7 and R were analysed by X-ray diffraction using a Bruker APEX-II Quasar diffractometer equipped with a molybdenum microsource (λ=0.71073 Å). Each sample was ground beforehand in a mortar for two minutes. Each of the powders thus obtained is then transferred to a capillary with diameter of 0.5 mm that is transparent to X-rays, and is then mounted on a goniometer. The recording characteristics are perfectly identical for each sample, namely: […]

Structure (SMILES): CSCCC(N)C(=O)O (racemic) [DLM, DL-methionine, reference compound]
Albumen ([1]; 6 weeks): 38.38 g/egg | Average weight of the eggs ([1]; 6 weeks): 63.4 g/egg | Consumption index ([1]; 6 weeks): 1.87 g feed/g egg | Daily food intake ([1]; 6 weeks): 112.4 g/day | Laying frequency ([1]; 6 weeks): 95% | Weight of eggs ([1]; 6 weeks): 60.3 g/day | Yolk ([1]; 6 weeks): 16.38 g/egg | Final body weight [1]: 1834.9 g/hen | Feeding:gain [2]: 2.01 ± 0.10 g:g | Final body weight [2]: 3.17 ± 0.15^ab kg/chicken | Food intake [2]: 141.51 ± 0.24 g/chicken/day | Gain in body weight [2]: 70.47 ± 3.37^ab g/chicken/day | DB, weight of the muscles of the breast ([3]; 0.3% in feed): 596.88 ± 56.68^abc g | DL, weight of the muscles of the thigh ([3]; 0.3% in feed): 586.03 ± 23.43^ab g | PDAT, ratio of the weight of the abdominal fat to that of the eviscerated chicken ([3]; 0.3% in feed): 1.88 ± 0.43^a % | PDB, ratio of the weight of the muscles of the breast (without bone or skin) to that of the eviscerated chicken ([3]; 0.3% in feed): 22.77 ± 1.44^b % | PDL, ratio of the weight of the muscles of the thigh (without bone or skin) to that of the eviscerated chicken ([3]; 0.3% in feed): 20.12 ± 0.22^a % | Apparent digestibility of ash [4]: 56.02 ± 1.01^b % | Apparent digestibility of crude fats [4]: 86.15 ± 0.93% | Apparent digestibility of crude proteins [4]: 63.70 ± 2.85^cd % | Apparent digestibility of dry matter [4]: 78.22 ± 1.70^c %

Structure (SMILES): CSCCC(O)C(=O)[O-].CSCCC(O)C(=O)[O-].[Ca+2] (stereo not drawn) [HMTBA-Ca, (HMTBA)2Ca]
Albumen ([1]; 6 weeks): 39.53 g/egg | Average weight of the eggs ([1]; 6 weeks): 64.9 g/egg | Consumption index ([1]; 6 weeks): 1.82 g feed/g egg | Daily food intake ([1]; 6 weeks): 112.7 g/day | Laying frequency ([1]; 6 weeks): 95% | Weight of eggs ([1]; 6 weeks): 62.0 g/day | Yolk ([1]; 6 weeks): 16.47 g/egg | Albumen content of the eggs, more relative to the eggs of hens fed with DLM ([1]; 6 weeks, relative to DLM): 3% | Average weight of the eggs, higher relative to that obtained with DLM ([1]; 6 weeks, relative to DLM): 2.3% | Final body weight [1]: 1897.2 g/hen | Feeding:gain [2]: 1.91 ± 0.12 g:g | Final body weight [2]: 3.38 ± 0.28^ab kg/chicken | Food intake [2]: 144.53 ± 20.93 g/chicken/day | Gain in body weight [2]: 75.08 ± 6.18^ab g/chicken/day | DB, weight of the muscles of the breast ([3]; 0.3% in feed): 617.54 ± 45.21^bc g | DL, weight of the muscles of the thigh ([3]; 0.3% in feed): 588.64 ± 38.07^ab g | PDAT, ratio of the weight of the abdominal fat to that of the eviscerated chicken ([3]; 0.3% in feed): 2.49 ± 0.59^b % | PDB, ratio of the weight of the muscles of the breast (without bone or skin) to that of the eviscerated chicken ([3]; 0.3% in feed): 22.98 ± 3.00^b % | PDL, ratio of the weight of the muscles of the thigh (without bone or skin) to that of the eviscerated chicken ([3]; 0.3% in feed): 22.06 ± 1.64^c % | Percentage of abdominal fat (in words) ([3]; chickens, 0.3% in feed, 46 days): increase in the percentage of abdominal fat | Weight of the muscles of the thigh and breast relative to DLM / the other groups (in words) ([3]; chickens, 46 days): significantly higher; also recorded: highest weight of muscles of the thigh and breast | Apparent digestibility of ash [4]: 44.62 ± 0.89^a % | Apparent digestibility of crude fats [4]: 90.28 ± 0.20^c % | Apparent digestibility of crude proteins [4]: 66.44 ± 0.37^cd % | Apparent digestibility of dry matter [4]: 81.80 ± 0.32^d % | Digestibility of the nutrients relative to the other two forms of methionine (in words) ([4]; chickens, 46 days): far better digestibility

Degree of crystallinity [5]: 100%
Structure (SMILES): CSCCC(O)C(=O)[O-].CSCCC(O)C(=O)[O-].[Ca+2] (stereo not drawn) [R, (HMTBA)2Ca]
